We go through twelve compounds from ChEMBL document CHEMBL1140289, “Studies on the apoptotic activity of natural and synthetic retinoids: discovery of a new class of synthetic terphenyls that potently support cell growth and inhibit apoptosis in neuronal and HL-60 cells” (2005).

Assay [1] has as its system HL-60. Nature of the assay: Effect (1 uM) on HL-60 cell apoptosis cultured for 72 hours in nonsupplemented serum-free medium. It is filed as functional, Homo sapiens.
Assay [2] deals with HL-60. Nature of the assay: Effect (1 uM) on HL-60 cell growth cultured for 72 hours in nonsupplemented serum-free medium. It is filed as functional, Homo sapiens.

The compound `CC1(C)CCC(C)(C)c2cc(/C=C\c3ccc(C(=O)O)cc3)ccc21` gave an Apoptosis in the assay on HL-60 [1] of 43%. Moreover, the Activity with HL-60 [2] was 100 no. of living cells (10E3) /mL.

In the case of `CC1=CCCC(C)(C)\C1=C/C=C(C)/C=C/C=C(\C)[C@@H](O)CO`, the Apoptosis in the assay with HL-60 [1] was found to be 34%. Moreover, in the assay with HL-60 [2], the Activity is on record as 181 no. of living cells (10E3) /mL.

In turn, `COc1cc(/C=C/c2ccc(C(=O)O)cc2)cc(OC)c1OC` returned an Apoptosis in the assay on HL-60 [1] of 36%. Moreover, the Activity in the assay with HL-60 [2] is listed as 166 no. of living cells (10E3) /mL.

For `CC(=O)CC[C@H](O)[C@@](C)(O)/C=C/C=C(C)/C=C/C1=C(C)CCCC1(C)C`, in the assay on HL-60 [1], the Apoptosis is given as 41%. For the same compound, in the assay with HL-60 [2], the Activity is reported as 129 no. of living cells (10E3) /mL.

The compound `CC(=O)OC[C@H](OC(C)=O)/C(C)=C/C=C/C(C)=C/C=C1/C(C)=CCCC1(C)C` displayed an Apoptosis with HL-60 [1] of 40%. Also, the Activity in the assay with HL-60 [2] is given as 129 no. of living cells (10E3) /mL.

Take `CC1(C)CCC(C)(C)c2cc(/C=C/c3ccc(C(=O)O)cc3)ccc21`: in the assay with HL-60 [1], the Apoptosis is reported as 36%. Also, in the assay on HL-60 [2], the Activity is reported as 155 no. of living cells (10E3) /mL.

The compound `COc1cc(-c2ccccc2-c2ccc(C(=O)O)cc2)cc(OC)c1OC` returned an Apoptosis in the assay on HL-60 [1] of 22%. The Activity with HL-60 [2] is listed as 220 no. of living cells (10E3) /mL.

In the assay with HL-60 [1], `CC1=C(/C=C/C(C)=C/C=C/[C@](C)(O)[C@@H](O)CO)C(C)(C)CCC1` returned an Apoptosis of 37%. The Activity in the assay with HL-60 [2] is on record as 149 no. of living cells (10E3) /mL.

Take `COc1cc(-c2ccc(-c3ccc(C(=O)O)cc3)cc2)cc(OC)c1OC`: the Apoptosis in the assay with HL-60 [1] was found to be 18%. Further, the Activity in the assay on HL-60 [2] was 300 no. of living cells (10E3) /mL.

Regarding `CC(=O)OC[C@H](OC(C)=O)[C@@](C)(O)/C=C/C=C(C)/C=C/C1=C(C)CCCC1(C)C`, the Apoptosis in the assay on HL-60 [1] was 30%. For the same compound, the Activity in the assay with HL-60 [2] is 207 no. of living cells (10E3) /mL.

Compound `COc1cc(/C=C\c2ccc(C(=O)O)cc2)cc(OC)c1OC` came in with an Apoptosis in the assay with HL-60 [1] of 42%. Besides, in the assay with HL-60 [2], the Activity was 100 no. of living cells (10E3) /mL.

`COc1cc(-c2cccc(-c3ccc(C(=O)O)cc3)c2)cc(OC)c1OC`: the Apoptosis in the assay with HL-60 [1] is 17%. For the same compound, the Activity with HL-60 [2] was 350 no. of living cells (10E3) /mL.
